In patent publication US20140088006A1, “Stem Cell Mobilization and Tissue Repair and Regeneration” (Wellstat Therapeutics Corporation, priority 2011, published 2014):
“And” between values parts separate entries of the source, which are not always exact repeats. Equal values may be shown once. No end group written: not given here.

Experiments:
[1] = Glucose level in db/db mice treated for 5 weeks; type: in vivo; conditions: for Glucose level in peripheral blood (nonfasting): 5 mg/kg s.c./i.v. for 5 weeks, individual mice; for Glucose level in peripheral blood, group mean: 5 mg/kg, high values set to 600 mg/dL
Experimental: Homozygous Leptin receptor-deficient diabetic db/db male mice—BKS.Cg-Dock7m+/+Leprdb/J (Jackson Laboratories, stock #000642) become obese at 3-4 weeks of age. Elevation of plasma insulin usually occurs at 10-14 days and elevation of blood glucose at 6-8 weeks of age. We examined the effects of Compound X on the onset of hyperglycemia in db/db mice. Continuous Compound X treatments were performed during 5 weeks.
At day 0, homozygous 7-week-old female db/db mice were divided into 2 experimental groups (n=10); both groups received subcutaneous injections for 5 consecutive days: Group 1 received 0.9% saline and group 2 received 5 mg/kg Compound X. The following week mice received intravenous injections for 4 consecutive days. The next two weeks mice received subcutaneous injections 3 times per week and the last week of treatment was given intravenously 3 times per week.
Nonfasting blood glucose levels were measured weekly from tail bleeds with a handheld glucometer. Animal body weights were taken throughout the course of the study.
At the end of experiment, serum from blood was obtained from the retro-orbital sinus after an overnight fast.

[2] = tested on: white blood cells in peripheral blood; test: White blood cell count in peripheral blood after single subcutaneous injection; type: in vivo, C57Bl6 mice; conditions: for White Blood Cell counts: Cell Count: individual mice
Experimental: C57Bl6 male mice, from 8 weeks to 4 month of age, from Harlan were used. Mice received subcutaneous injections of saline, Compound X (50 μg/kg) or Compound X (250 μg/kg). After 1 and 4 hours, mice were anesthetized and blood was collected through the orbital sinus with heparinized capillary tubes. 20 μl of blood was removed from each tube for WBC counts;
In this experiment, C57Bl6 mice received subcutaneous injections of PBS, Compound X (250 μg/kg) or AMD3100 (5 mg/kg). After 1 hr blood was collected through the orbital sinus with heparinized capillary tubes. Blood from each group was pooled, counted and mononuclear cells were isolated by density gradient separation. Cells were washed, counted and plated at 100,000 per dish (5 dishes/group) for CFU-GEMM and CFU-GM colonies. CFU-GEMM colonies were scored on day 14, while CFU-GM colonies on day 7 after plating in MC3434 (Stem cell Technology).

[3] = tested on: CFU-GEMM progenitor cells; test: Mobilization of CFU-GEMM in diabetic db/db mice; type: in vivo
[4] = tested on: white blood cells in peripheral blood; test: White blood cell count after 4 daily injections of G-CSF and Compound X; type: in vivo, mice; conditions: 5 μg/mouse each agent s.c. daily for 4 days, pooled blood
Experimental: Compound X and Neupogen (rG-CSF Amgen, lot# P043601) were diluted in PBS. Mice received subcutaneous injections of PBS, Compound X (5 μg/mouse), G-CSF (5 μg/mouse) or Compound X (5 μg/mouse)+G-CSF (5 μg/mouse) for four consecutive days. On the last day of injections, 1 hour post injections, blood was collected through the orbital sinus with heparinized capillary tubes. Blood was pooled from 3 mice/group and white blood cell counts were obtained. Mononuclear cells were isolated by density gradient separation from pooled blood. Cells were washed, counted and plated at 100,000 per dish (5 dishes/group) for CFU-mix and CFU-GM colonies. Blood was also collected and processed on day 8 for colony assay. Results are shown in Tables 10, 11, and 12 and in FIG. 5.

Sequence: FPHFDLSHGSAQV [Compound X, tridecapeptide that acts on stem cells]
- Glucose level in peripheral blood (nonfasting) ([1]; Week 1): 160 mg/dL and 121 mg/dL and 122 mg/dL and 235 mg/dL and 117 mg/dL and 178 mg/dL and 248 mg/dL and 119 mg/dL and 181 mg/dL and 194 mg/dL
- Glucose level in peripheral blood (nonfasting) ([1]; Week 2): 481 mg/dL and 377 mg/dL and 177 mg/dL and 472 mg/dL and 273 mg/dL and 452 mg/dL and 500 mg/dL and 189 mg/dL and 502 mg/dL and 430 mg/dL
- Glucose level in peripheral blood (nonfasting) ([1]; Week 3): 541 mg/dL (2×) and 447 mg/dL and 271 mg/dL and HI (High/Hi = ≧600 mg/dL, the maximum possible glucometer reading) and 546 mg/dL and 496 mg/dL and 474 mg/dL and 267 mg/dL and 463 mg/dL
- Glucose level in peripheral blood (nonfasting) ([1]; Week 4): 398 mg/dL and 416 mg/dL and 206 mg/dL and 599 mg/dL and 440 mg/dL and 458 mg/dL and 591 mg/dL and 257 mg/dL and HI (High/Hi = ≧600 mg/dL, the maximum possible glucometer reading) and 549 mg/dL
- Glucose level in peripheral blood (nonfasting) ([1]; Week 5): 481 mg/dL and 443 mg/dL and 256 mg/dL and 527 mg/dL and 525 mg/dL and 582 mg/dL and 588 mg/dL and 467 mg/dL and HI (High/Hi = ≧600 mg/dL, the maximum possible glucometer reading) (2×)
- Glucose level in peripheral blood (nonfasting) ([1]; Week 6): 400 mg/dL and 541 mg/dL and 265 mg/dL and 537 mg/dL and 576 mg/dL and HI (High/Hi = ≧600 mg/dL, the maximum possible glucometer reading) (4×) and 457 mg/dL
- Glucose level in peripheral blood, group mean ([1]; Week 1): 168 ± 15 mg/dL
- Glucose level in peripheral blood, group mean ([1]; Week 2): 385 ± 40 mg/dL
- Glucose level in peripheral blood, group mean ([1]; Week 3): 465 ± 36 mg/dL
- Glucose level in peripheral blood, group mean ([1]; Week 4): 451 ± 44 mg/dL
- Glucose level in peripheral blood, group mean ([1]; Week 5): 506 ± 33 mg/dL
- Glucose level in peripheral blood, group mean ([1]; Week 6): 517 ± 35 mg/dL
- nonfasting glucose level compared to Saline control ([1]; at all timepoints): decreased glucose level
- mice with lower than 200 mg/dL fasting serum glucose ([1]; end of the 5-week study): 2 mice
- mice with overnight fasting serum glucose <300 mg/dL ([1]; end of the 5-week study, vehicle 3/10): 7/10
- White blood cell count: Cell Count ([2]; s.c. 250 μg/kg, 1 hr, pooled blood): 7.2e+06 mL⁻¹
- White Blood Cell counts: Cell Count ([2]; single s.c. 50 μg/kg, 1 hour): 1.41e+07 mL⁻¹ and 7.8e+06 mL⁻¹ and 9.6e+06 mL⁻¹
- White Blood Cell counts: Cell Count ([2]; single s.c. 50 μg/kg, 4 hours): 2.22e+07 mL⁻¹ and 6.9e+06 mL⁻¹ and 1e+07 mL⁻¹
- White Blood Cell counts: Cell Count ([2]; single s.c. 250 μg/kg, 1 hour): 9.6e+06 mL⁻¹ and 9.2e+06 mL⁻¹ and 1.79e+07 mL⁻¹
- White Blood Cell counts: Cell Count ([2]; single s.c. 250 μg/kg, 4 hours): 1.67e+07 mL⁻¹ and 1.46e+07 mL⁻¹ and 1.03e+07 mL⁻¹
- egress of cells from bone marrow into peripheral blood (white blood cell count) ([2]; single s.c. 50 or 250 μg/kg): did not cause massive egress of cells
- increase of CFU-GEMM number in peripheral blood vs Vehicle or 250 ug/kg ([3]; intravenous 5 mg/kg, one-hour post injection): > 3 times
- mobilization of progenitor cells into the peripheral blood ([3]; subcutaneous, doses as high as 5 mg/kg): failed to mobilize
- White Blood Cell counts: Cell Count ([4]; Day 4, 1 hour post injection): 7.3 ×10^6
- White Blood Cell counts: Cell Count ([4]; Day 8): 6.1 ×10^6
